According to article PMC3764824, “Base-modified Donor Analogues Reveal Novel Dynamic Features of a Glycosyltransferase” (The Journal of Biological Chemistry, 2013):
One block for each molecule: values may come before it.

What was measured:
[1] = target: T1, AAGlyB (GTA-L266G/G268A) (Homo sapiens, UniProt P16442, L266G/G268A); assay: X-ray crystallography ([…] Å); format: binding; conditions: ternary complex with HAA; UDP carried over from purification
T1 construct: gene ABO; soluble catalytic domain, N-terminally truncated (forward primer MIN2 encodes MVSLPRMVYPQP; C-terminus ...NP at residue 354), made in E. coli BL21-gold from pCWdeltalac; SP-Sepharose and UDP-hexanolamine-Sepharose; residues 58-354 stated ordered in UDP-HAA crystal
T1 sequence (P16442 64-354 L266G/G268A): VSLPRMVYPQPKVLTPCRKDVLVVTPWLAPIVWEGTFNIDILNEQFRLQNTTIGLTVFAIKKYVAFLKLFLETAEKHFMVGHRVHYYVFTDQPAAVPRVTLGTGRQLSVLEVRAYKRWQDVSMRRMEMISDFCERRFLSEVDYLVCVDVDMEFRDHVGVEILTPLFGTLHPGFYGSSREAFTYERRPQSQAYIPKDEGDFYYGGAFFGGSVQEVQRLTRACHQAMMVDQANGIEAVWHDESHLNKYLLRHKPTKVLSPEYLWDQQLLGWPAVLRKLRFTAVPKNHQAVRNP

[2] = target: T2, AAGlyB (GTA-L266G/G268A) (Homo sapiens, UniProt P16442, G268A/L266G); assay: radiochemical Sep-Pak assay, Dixon plot; format: biochemical; conditions: read-out: 2
T2 construct: gene ABO; soluble catalytic domain, N-terminally truncated (forward primer MIN2 encodes MVSLPRMVYPQP; C-terminus ...NP at residue 354), made in E. coli BL21-gold from pCWdeltalac; SP-Sepharose and UDP-hexanolamine-Sepharose; residues 58-354 stated ordered in UDP-HAA crystal
T2 sequence (P16442 64-354 L266G/G268A): T1 sequence (P16442 64-354 L266G/G268A)
Source text: radiochemical Sep-Pak assay, Dixon plot on AAGlyB (GTA-L266G/G268A)

[3] = target: T1, AAGlyB (GTA-L266G/G268A); assay: capillary electrophoresis with LIF detection; format: biochemical; conditions: labelled compound; co-substrate compound 2 (33.3 μM), CE assay, 20 mM MnCl2, MOPS pH 7.0, 37 °C
Source text: (§1) capillary electrophoresis with LIF detection on AAGlyB (GTA-L266G/G268A)

[4] = substrate: O=c1[nH]c(=O)n([C@@H]2O[C@H](COP(=O)(O)OP(=O)(O)O[C@H]3O[C@H](CO)[C@H](O)[C@H](O)[C@H]3O)[C@@H](O)[C@H]2O)cc1-c1ccccc1; assay: capillary electrophoresis with LIF detection; format: biochemical, Homo sapiens; conditions: 50 μM tetramethylrhodamine-labeled HAA, 20 mM MnCl2, 50 mM MOPS pH 7.0, 37 °C
Source text: as §1

Molecule: O=c1ccn([C@@H]2O[C@H](COP(=O)(O)OP(=O)(O)O)[C@@H](O)[C@H]2O)c(=O)[nH]1 [UDP]
X-ray crystallography (1.8 Å) [1]: The AAGlyB-UDP-HAA structure shows very well defined electron density

Ki [2]: 3 µM
Molecule: O=c1[nH]c(=O)n([C@@H]2O[C@H](COP(=O)(O)OP(=O)(O)O[C@H]3O[C@H](CO)[C@H](O)[C@H](O)[C@H]3O)[C@@H](O)[C@H]2O)cc1-c1ccccc1 [compound 2, UDP-Gal derivative 2]

Km [3]: 56 ± 3 µM
Molecule: α-Fucp-(1→2)-β-Galp-O-(CH2)8CONH(CH2)2NH-CO-tetramethylrhodamine

B1: AAGlyB (GTA-L266G/G268A) (Homo sapiens; G268A/L266G) (protein)
chain: T1 sequence (P16442 64-354 L266G/G268A)
notes: soluble catalytic domain, N-terminally truncated (forward primer MIN2 encodes …; C-terminus ...NP at residue 354), made in E. coli BL21-gold from pCWdeltalac; SP-Sepharose and UDP-hexanolamine-Sepharose; residues 58-354 stated ordered in UDP-HAA crystal
Km [4]: 6.5 ± 0.5 µM | kcat [4]: 0.006 ± 0.0008 s⁻¹
